Test results published in ChEMBL document CHEMBL4715827, “Structure-guided design of pyridoclax derivatives based on Noxa / Mcl-1 interaction mode” (Eur J Med Chem, 2018).
Active and inactive are the calls of the source. The calls are words filed in the database; no cut-off is given here.

Assays:
[1] = Pro-apoptotic activity in human IGROV1-R10 cells transfected with Bcl-xL siRNA assessed as condensed nuclei at 25 uM measured after 24 hrs by DAPI staining based fluorescence microscopy analysis relative to control; format: functional
IGROV1-R10 [2] = assay: Pro-apoptotic activity in human IGROV1-R10 cells transfected with Bcl-xL siRNA assessed as morphological alteration at 25 uM measured after 24 hrs by DAPI staining based fluorescence microscopy analysis; format: functional, cell-based
[3] = Pro-apoptotic activity in human IGROV1-R10 cells transfected with Bcl-xL siRNA assessed as accumulation at sub G1 phase at 25 uM incubated for 24 hrs by propidium iodide staining based flow cytometry analysis (reference value: 17% ); format: functional
[4] = Pro-apoptotic activity in human IGROV1-R10 cells transfected with control siRNA assessed as accumulation at sub G1 phase at 25 uM incubated for 24 hrs by propidium iodide staining based flow cytometry analysis (reference value: 4.5% ); format: functional
IGROV1-R10 [5] = assay: Pro-apoptotic activity in human IGROV1-R10 cells transfected with Bcl-xL siRNA assessed as increase in cleaved caspase-3 expression at 25 uM measured after 24 hrs by Western blot analysis; format: functional, cell-based
IGROV1-R10 [6] = assay: Pro-apoptotic activity in human IGROV1-R10 cells transfected with Bcl-xL siRNA assessed as increase in cleaved PARP expression at 25 uM measured after 24 hrs by Western blot analysis; format: functional, cell-based
[7] = Pro-apoptotic activity in human IGROV1-R10 cells assessed as accumulation at sub G1 phase at 10 uM incubated for 24 hrs in presence of ABT-737 by propidium iodide staining based flow cytometry analysis (reference value: 10.8% ); format: functional
[8] = Pro-apoptotic activity in human IGROV1-R10 cells assessed as accumulation at sub G1 phase at 25 uM incubated for 24 hrs by propidium iodide staining based flow cytometry analysis (reference value: 2.8% ); format: functional
[9] = Pro-apoptotic activity in human IGROV1-R10 cells assessed as accumulation at sub G1 phase at 15 uM incubated for 24 hrs in presence of ABT-737 by propidium iodide staining based flow cytometry analysis (reference value: 10.8% ); format: functional
A2780 [10] = assay: Pro-apoptotic activity in human A2780 cells assessed as increase in caspase3/7 positive cells at 25 uM measured after 24 hrs in presence of ABT-737 by DAPI staining based fluorescence microscopy analysis; format: functional, cell-based
[11] = Pro-apoptotic activity in human IGROV1-R10 cells assessed as accumulation at sub G1 phase at 15 uM incubated for 24 hrs by propidium iodide staining based flow cytometry analysis (reference value: 2 % ); format: functional
[12] = Pro-apoptotic activity in human IGROV1-R10 cells assessed as accumulation at sub G1 phase at 25 uM incubated for 24 hrs in presence of ABT-737 by propidium iodide staining based flow cytometry analysis (reference value: 21.2% ); format: functional
SK-OV-3 [13] = assay: Pro-apoptotic activity in human SKOV3 cells assessed as increase in caspase3/7 positive cells at 25 uM measured after 24 hrs in presence of ABT-737 by DAPI staining based fluorescence microscopy analysis; format: functional, cell-based
[14] = Pro-apoptotic activity in human IGROV1-R10 cells assessed as accumulation at sub G1 phase at 10 uM incubated for 24 hrs by propidium iodide staining based flow cytometry analysis (reference value: 2 % ); format: functional
[15] = Cytotoxicity against human AG1521 cells assessed as accumulation subG1 phase at 15 uM after 24 hrs in presence of ABT-737 by flow cytometry (reference value: 1.64%); format: cell-based; settings: ag1521, 24 h
IGROV1-R10 [16] = assay: Induction of apoptosis in human IGROV1-R10 cells assessed as up regulation of NOXA by Western blot analysis; format: functional, cell-based
IGROV1-R10 [17] = assay: Pro-apoptotic activity in human IGROV1-R10 cells transfected with Bcl-xL siRNA assessed as cleaved PARP expression at 15 uM incubated for 8 hrs by Western blot analysis; format: functional, cell-based
[18] = Cytotoxicity against human IGROV1-R10 cells transfected with siMCL1 at 15 uM after 24 hrs by fluorescence microscopic analysis; format: cell-based; settings: igrov1-r10, 24 h
A549 [19] = assay: Pro-apoptotic activity in human A549 cells assessed as accumulation subG1 phase at 15 uM after 24 hrs in presence of ABT-737 by flow cytometry (reference value: 3.83%); format: functional
[20] = target: Induced myeloid leukemia cell differentiation protein Mcl-1 (Homo sapiens) (UniProt Q07820); assay: Inhibition of FAM-Bim peptide binding to MCL-1 in human MCF-7 cells assessed as disruption by BRET assay; format: cell-based; settings: MCF7
[21] = Pro-apoptotic activity in human IGROV1-R10 cells transfected with Bcl-xL siRNA assessed as accumulation at sub G1 phase at 15 uM incubated for 6 hrs by propidium iodide staining based flow cytometry analysis relative to control; format: functional
IGROV1-R10 [22] = assay: Pro-apoptotic activity in human IGROV1-R10 cells transfected with Bak siRNA assessed as cleaved caspase-3 level at 15 uM incubated for 24 hrs in presence of ABT-737 by Western blot analysis; format: functional, cell-based
[23] = Pro-apoptotic activity in human IGROV1-R10 cells transfected with Bak siRNA assessed as accumulation at sub G1 phase at 15 uM incubated for 24 hrs by propidium iodide staining based flow cytometry analysis (reference value: 3.4%); format: functional
[24] = Pro-apoptotic activity in human IGROV1-R10 cells transfected with Bcl-xL siRNA assessed as accumulation at sub G1 phase at 15 uM incubated for 4 hrs by propidium iodide staining based flow cytometry analysis relative to control; format: functional
[25] = Pro-apoptotic activity in human IGROV1-R10 cells transfected with Bcl-xL siRNA assessed as accumulation at sub G1 phase at 15 uM incubated for 24 hrs by propidium iodide staining based flow cytometry analysis relative to control; format: functional
[26] = Pro-apoptotic activity in human IGROV1-R10 cells transfected with Bak and Bax siRNA assessed as accumulation at sub G1 phase at 15 uM incubated for 24 hrs in presence of ABT-737 by propidium iodide staining based flow cytometry analysis (reference value: 4.3% ); format: functional
[27] = Pro-apoptotic activity in human IGROV1-R10 cells transfected with Bak and Bax siRNA assessed as accumulation at sub G1 phase at 15 uM incubated for 24 hrs by propidium iodide staining based flow cytometry analysis (reference value: 4.3%); format: functional
[28] = Pro-apoptotic activity in human IGROV1-R10 cells transfected with Bak siRNA assessed as accumulation at sub G1 phase at 15 uM incubated for 24 hrs in presence of ABT-737 by propidium iodide staining based flow cytometry analysis (reference value: 3.4% ); format: functional
[29] = Pro-apoptotic activity in human IGROV1-R10 cells transfected with Bcl-xL siRNA assessed as accumulation at sub G1 phase at 15 uM incubated for 12 hrs by propidium iodide staining based flow cytometry analysis relative to control; format: functional
IGROV1-R10 [30] = assay: Pro-apoptotic activity in human IGROV1-R10 cells assessed as cleaved caspase-3 expression at 15 uM measured after 24 hrs in presence of ABT-737 by Western blot analysis; format: functional, cell-based
IGROV1-R10 [31] = assay: Pro-apoptotic activity in human IGROV1-R10 cells transfected with Bak siRNA assessed as condensed nuclei at 15 uM incubated for 24 hrs in presence of ABT-737 by DAPI staining based fluorescence microscopic analysis; format: functional, cell-based
[32] = Pro-apoptotic activity in human IGROV1-R10 cells transfected with Bcl-xL siRNA assessed as accumulation at sub G1 phase at 15 uM incubated for 8 hrs by propidium iodide staining based flow cytometry analysis relative to control; format: functional
[33] = Cytotoxicity against human AG1521 cells assessed as accumulation subG1 phase at 15 uM after 24 hrs by flow cytometry (reference value: 1.7%); format: cell-based; settings: ag1521, 24 h
IGROV1-R10 [34] = assay: Pro-apoptotic activity in human IGROV1-R10 cells transfected with Bak siRNA assessed as cleaved PARP level at 15 uM incubated for 24 hrs in presence of ABT-737 by Western blot analysis; format: functional, cell-based
IGROV1-R10 [35] = assay: Pro-apoptotic activity in human IGROV1-R10 cells transfected with Bcl-xL siRNA assessed as cleaved caspase-3 expression at 15 uM incubated for 8 hrs by Western blot analysis; format: functional, cell-based
A2780 [36] = assay: Pro-apoptotic activity in human A2780 cells assessed as increase in caspase3/7 positive cells at 15 uM measured after 24 hrs in presence of ABT-737 by DAPI staining based fluorescence microscopy analysis; format: functional, cell-based
[37] = Pro-apoptotic activity in human IGROV1-R10 cells transfected with Bax siRNA assessed as accumulation at sub G1 phase at 15 uM incubated for 24 hrs by propidium iodide staining based flow cytometry analysis (reference value: 3.2% ); format: functional
SK-OV-3 [38] = assay: Pro-apoptotic activity in human SKOV3 cells assessed as increase in caspase3/7 positive cells at 15 uM measured after 24 hrs in presence of ABT-737 by DAPI staining based fluorescence microscopy analysis; format: functional, cell-based
IGROV1-R10 [39] = assay: Pro-apoptotic activity in human IGROV1-R10 cells assessed as cleaved PARP expression at 15 uM measured after 24 hrs in presence of ABT-737 by Western blot analysis; format: functional, cell-based
[40] = Pro-apoptotic activity in human IGROV1-R10 cells transfected with Bax siRNA assessed as accumulation at sub G1 phase at 15 uM incubated for 24 hrs in presence of ABT-737 by propidium iodide staining based flow cytometry analysis (reference value: 3.2% ); format: functional
A549 [41] = assay: Pro-apoptotic activity in human A549 cells assessed as accumulation subG1 phase at 15 uM after 24 hrs by flow cytometry (reference value: 2.5%); format: functional

Induced myeloid leukemia cell differentiation protein Mcl-1 (Homo sapiens), sequence (Q07820 whole entry): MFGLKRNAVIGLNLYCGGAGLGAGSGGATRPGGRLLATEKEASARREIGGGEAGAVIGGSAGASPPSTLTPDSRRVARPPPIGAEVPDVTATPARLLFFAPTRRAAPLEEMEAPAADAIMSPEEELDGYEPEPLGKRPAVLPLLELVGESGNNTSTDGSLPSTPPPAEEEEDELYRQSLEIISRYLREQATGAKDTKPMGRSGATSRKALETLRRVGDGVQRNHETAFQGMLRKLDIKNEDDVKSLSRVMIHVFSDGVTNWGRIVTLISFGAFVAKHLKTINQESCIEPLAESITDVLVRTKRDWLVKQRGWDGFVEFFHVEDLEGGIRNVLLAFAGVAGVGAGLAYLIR

Cc1cc(-c2ncc(-c3cccnc3)cc2/C=C/c2ccccc2)cnc1-c1cccc(O)c1
Activity [1]: 35.9%
Activity (IGROV1-R10 [2]): inactive
Activity [3]: 52.2%
Activity [4]: 12.5%
Activity (IGROV1-R10 [5]): Active
Activity (IGROV1-R10 [6]): Active

Cc1cc(-c2ncc(-c3cccc(CC#N)c3)cc2/C=C/c2ccccc2)cnc1-c1cccnc1
Activity [1]: 25.3%
Activity (IGROV1-R10 [2]): inactive
Activity [3]: 36.9%
Activity [4]: 53%
Activity (IGROV1-R10 [5]): Active
Activity (IGROV1-R10 [6]): Active

Cc1cc(-c2ncc(-c3cccnc3)cc2/C=C/c2ccccc2)cnc1-c1cccnc1
Activity [1]: 63.4%
Activity [7]: 22.5%
Activity [8]: 6.46%
Activity [9]: 36.1%
Activity (A2780 [10]): Active
Activity [11]: 4.9%
Activity [12]: 70.99%
Activity (IGROV1-R10 [2]): inactive
Activity [3]: 62.76%
Activity (SK-OV-3 [13]): Active
Activity (IGROV1-R10 [5]): Active
Activity (IGROV1-R10 [6]): Active
Activity [14]: 2.5%

Cc1cc(-c2ncc(-c3cccc(CC(=O)O)c3)cc2/C=C/c2ccccc2)cnc1-c1cccnc1
Activity [1]: 31.7%
Activity (IGROV1-R10 [2]): inactive
Activity [3]: 46.8%
Activity [4]: 4.6%
Activity (IGROV1-R10 [5]): Active
Activity (IGROV1-R10 [6]): Active

Cc1cc(-c2ncc(-c3cccnc3)cc2/C=C/c2ccccc2)cnc1-c1cccc(C/C(N)=N/O)c1
Activity [1]: 91.3%
Activity [15]: 3.33%
Activity [7]: 34.3%
Activity (IGROV1-R10 [16]): Active
Activity [8]: 40.69%
Activity (IGROV1-R10 [17]): Active
Activity [9]: 57.43%
Activity [18]: Non-Toxic
Activity (A549 [19]): 68.86%
inhibition [20]: Active
Activity [21]: 19.3%
Activity (IGROV1-R10 [22]): inactive
Activity [11]: 2.8%
Activity [23]: 6.8%
Activity [24]: 14.1%
Activity [12]: 55.75%
Activity [25]: 64.8%
Activity (IGROV1-R10 [2]): Active
Activity [3]: 59%
Activity [26]: 27.9%
Activity [4]: 47.8%
Activity [27]: 6%
Activity [28]: 41%
Activity [29]: 52.2%
Activity (IGROV1-R10 [30]): Active
Activity (IGROV1-R10 [31]): inactive
Activity [32]: 35.2%
Activity [33]: 1.98%
Activity (IGROV1-R10 [34]): inactive
Activity (IGROV1-R10 [35]): Active
Activity (A2780 [36]): Active
Activity [37]: 7%
Activity (SK-OV-3 [38]): Active
Activity (IGROV1-R10 [39]): Active
Activity [40]: 56.7%
Activity (IGROV1-R10 [5]): Active
Activity (A549 [41]): 12.93%
Activity (IGROV1-R10 [6]): Active
Activity [14]: 2.2%

Cc1cc(-c2ncc(-c3cccc(O)c3)cc2/C=C/c2ccccc2)cnc1-c1cccnc1
Activity [1]: 19.9%
Activity (IGROV1-R10 [2]): inactive
Activity [3]: 37.5%
Activity [4]: 5.5%
Activity (IGROV1-R10 [5]): Active
Activity (IGROV1-R10 [6]): Active

Cc1cc(-c2ncc(-c3cccnc3)cc2/C=C/c2ccccc2)cnc1-c1cccc(CC(=O)O)c1
Activity [1]: 7.8%
inhibition [20]: inactive
Activity (IGROV1-R10 [2]): inactive
Activity [3]: 14.5%
Activity [4]: 6%
Activity (IGROV1-R10 [5]): inactive
Activity (IGROV1-R10 [6]): Active

Cc1cc(-c2ncc(-c3cccc(C/C(N)=N/O)c3)cc2/C=C/c2ccccc2)cnc1-c1cccnc1
Activity [1]: 28%
Activity (IGROV1-R10 [2]): inactive
Activity [3]: 45.3%
Activity [4]: 4.8%
Activity (IGROV1-R10 [5]): Active
Activity (IGROV1-R10 [6]): Active

Cc1cc(-c2ncc(-c3cccnc3)cc2/C=C/c2ccccc2)cnc1-c1cccc(CC#N)c1
Activity [1]: 35.1%
Activity (IGROV1-R10 [2]): inactive
Activity [3]: 43%
Activity [4]: 6.5%
Activity (IGROV1-R10 [5]): Active
Activity (IGROV1-R10 [6]): Active
